Results: PubChem BioAssay AID1963854 (Molecular Pharmacology Branch, DTP, NCI, 2024)
Where “and” joins values, the source holds several entries; their conditions need not be identical. Equal values may be shown once.

Test system: 186277-243-T-J2-PDC complex spheroid viability
Assay: Anticancer human tumor 186277-243-T-J2-PDC patient-derived colon adenocarcinoma cell line growth inhibition [POLQ]
Settings: for viability, T/C: stronger effect = lower value
Method: Multicellular complex tumor spheroid response to Polymerase (POL) inhibitors (novobiocin, ART-558, RP6685) in combination with a variety of drugs and investigational agents in selected tumor cell lines
The POL inhibitors (novobiocin, ART-558, and RP6685) were evaluated both individually and in combination with standard of care and investigational anticancer small molecules within a complex spheroid model of solid tumors. . Complex spheroids include a stromal component modeled by human endothelial cells (HUVEC) and fibroblasts modeled by human mesenchymal stem cells (MSCs). The concentration ranges selected for each drug and investigational agent were based upon clinically achievable concentrations if the clinical Cmax of the agent was known.
Compounds. The drugs and investigational agents: novobiocin (NSC847541), ART-558 (NSC835418), RP-6685 (NSC848927), peposertib (NSC802822), ceralasertib (NSC780249), elimusertib (NSC800525), camonsertib (NSC841442), AZD-1390 (NSC803789), olaparib (NSC753686), talazoparib (NSC767125), rucaparib (NSC756644), sotorasib (NSC818433), MRTX-1133 (NSC836407), SN-38 (NSC673596), topotecan (NSC609699), epotoside (NSC141540), doxorubicin (NSC123127), gemcitabine (NSC613327), 5-fluorouracil (NSC19893), paclitaxel (NSC125973), vemurafenib (NSC761431), MSA-2 (NSC828583), SN-011 (NSC837082), adavosertib (NSC754352), prexasertib (NSC758257), carboplatin (NSC241240) and oxaliplatin (NSC266046), were obtained from the National Cancer Institute (NCI) Developmental Therapeutics Program Chemical Repository (21). The FDA-approved anticancer drug set is available from the Developmental Therapeutics Program at https://dtp.cancer.gov/organization/dscb/obtaining/. […] The stock solutions were prepared in dimethyl sulfoxide (DMSO, Sigma-Aldrich, St. Louis, MO, cat. D2650), except for the platinum compounds which were prepared in saline (Quality Biological, Gaithersburg, MD, cat. 114-055-101), at 800-fold the tested concentration and stored at -70 degrees C prior to their use. All drugs and investigational agents were tested over a range starting from a high concentration at or near the clinical Cmax and decreasing in half-log increments. If the clinical Cmax for an agent had not been determined, the highest concentration tested was 10 microM, except for SN-38, which was tested at a high concentration of 1 microM.
Cell Culture. All cells were maintained in an incubator at 37 degrees C and 5% CO2 with 95% humidity. The PDC lines were cultured according to standard operating procedures established by the NCI PDMR (https://pdmr.cancer.gov). Table 3 of the manuscript, lists the cell lines along with the number of the three cell types plated to form the mct-spheroids and media for tumor cell growth. After thawing, all PDC lines, except 997537-175-T-J1-PDC and 415267-285-R-J2-PDC, were cultured in Matrigel-coated flasks prepared with a working solution of 1X Ham's F-12 nutrient mix, without supplementation (Thermo Fisher Scientific, cat. 11765054), 100 U/mL penicillin-streptomycin (Thermo Fisher Scientific, cat. 15140122), and 2.5% Matrigel (Corning Inc., Corning, NY, cat. 354248) for the first three passages. The two PDC lines 997537-175-T-J1-PDC and 415267-285-R-J2-PDC were cultured on uncoated flasks. The 857933-349-R-J2-PDC line was cultured in 6C/Colon 1B media containing advanced DMEM/F-12 (Thermo Fisher Scientific, cat. 12634028), 10 mM HEPES (Thermo Fisher Scientific, cat. 15630080), 1X GlutaMAX supplement (Thermo Fisher Scientific, cat. 35050061), 0.1 mg/mL primocin (InvivoGen, San Diego, CA, cat. ant-pm-2), 10% defined fetal bovine serum, heat inactivated (HyClone Laboratories Inc., Logan, UT, cat. SH30070.03HI), 50% L-WRN conditioned media (ATCC, cat. CRL-3276), 1.25 mM N-Acetyl-L-cysteine (Sigma-Aldrich, cat. A9165), 10 mM nicotinamide (Sigma-Aldrich, cat. N0636), 1X B-27 supplement (Thermo Fisher Scientific, cat. 17504044), 1X N-2 supplement (Thermo Fisher Scientific, cat. […]
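Note: spheroids exposed to compounds for seven days.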
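Throughout, for viability, T/C: 100% = DMSO vehicle control viability.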

What does the source list for `Cn1ncnc1[C@H]1c2n[nH]c(=O)c3cc(F)cc(c23)N[C@@H]1c1ccc(F)cc1`?
viability, T/C (compound 0.000316 µM): 102% and 96.7% and 107%; viability, T/C (compound 0.001 µM): 100% and 97.4% and 94.3%; viability, T/C (compound 0.00316 µM): 104% and 101% and 97%; viability, T/C (compound 0.01 µM): 118% and 100% and 105%; viability, T/C (compound 0.0316 µM): 118% and 137% and 114%; viability, T/C (compound 0.1 µM): 109% and 124% and 103%; IC50 (curve of compound): > 100 nM

With `COc1cccc(OCCCN)c1-c1cc(Nc2cnc(C#N)cn2)n[nH]1` as the molecule, how does the viability, T/C (compound 0.01 µM) read?
The viability, T/C was 5.26% and 13.4% and 12.2%.

What about the viability, T/C (compound 0.0316 µM) of the same molecule?
Its viability, T/C is 4.75% and 10.6% and 9.65%.

What about the viability, T/C (compound 0.1 µM) of the same molecule?
Its viability, T/C is 4.55% and 9.76% and 10.4%.

And the viability, T/C (compound 0.316 µM)?
Its viability, T/C is 4.05% and 9.54% and 9.26%.

And the viability, T/C (compound 1 µM)?
Its viability, T/C is 5.58% and 9.9% and 9.33%.

What about the IC50 (curve of compound) of the same molecule?
The IC50 was < 3.16 nM.

Which results are given for `CC1COCCN1c1cc(-c2ccnn2C)c2ccnc(-c3ccn[nH]3)c2n1` (stereo not given)?
viability, T/C (compound 0.0316 µM): 71.3% and 65.3% and 109%; viability, T/C (compound 0.1 µM): 13% and 10.7% and 26.4%; viability, T/C (compound 0.316 µM): 5.52% and 4.67% and 10.7%; viability, T/C (compound 1 µM): 4.69% and 4.34% and 7.36%; viability, T/C (compound 3.16 µM): 4.26% and 2.97% and 6.64%; viability, T/C (compound 10 µM): 4.3% and 3.61% and 9.38%; IC50 (curve of compound): 48.2 nM and 43.7 nM and 72.2 nM

For `C=CCn1c(=O)c2cnc(Nc3ccc(N4CCN(C)CC4)cc3)nc2n1-c1cccc(C(C)(C)O)n1`, which viability, T/C (compound 0.00316 µM) is on record?
Its viability, T/C is 95.7% and 86.8% and 99.2%.

What about the viability, T/C (compound 0.01 µM) of the same molecule?
Its viability, T/C is 96% and 97.5% and 95.8%.

What about the viability, T/C (compound 0.0316 µM) of the same molecule?
Its viability, T/C is 97.8% and 104% and 94.2%.

What about the viability, T/C (compound 0.1 µM) of the same molecule?
The viability, T/C was 93.9% and 91.6% and 113%.

And the viability, T/C (compound 0.316 µM)?
Its viability, T/C is 13.8% and 27.6% and 28.5%.

What about the viability, T/C (compound 1 µM) of the same molecule?
Its viability, T/C is 7.74% and 14.5% and 12.9%.

What about the IC50 (curve of compound) of the same molecule?
Its IC50 is 188 nM and 211 nM and 224 nM.

What does the source list for `C=CCn1c(=O)c2cnc(Nc3ccc(N4CCN(C)CC4)cc3)nc2n1-c1cccc(C(C)(C)O)n1` + Cc1cccc(N(C)C(=O)C2C(O)CCN2c2nc(C)cc(C(F)(F)F)c2C#N)c1?
IC50 (curve of first compound, second compound 0.0316 µM): 213 nM; IC50 (curve of first compound, second compound 0.1 µM): 230 nM; IC50 (curve of first compound, second compound 0.316 µM): 220 nM; IC50 (curve of first compound, second compound 1 µM): 226 nM; IC50 (curve of first compound, second compound 3.16 µM): 223 nM; IC50 (curve of first compound, second compound 10 µM): 224 nM; viability, T/C (second compound 0.0316 µM, first compound 0.00316 µM): 107%; viability, T/C (second compound 0.0316 µM, first compound 0.01 µM): 102%; viability, T/C (second compound 0.0316 µM, first compound 0.0316 µM): 88.4%; viability, T/C (second compound 0.0316 µM, first compound 0.1 µM): 96.3%; viability, T/C (second compound 0.0316 µM, first compound 0.316 µM): 25.9%; viability, T/C (second compound 0.0316 µM, first compound 1 µM): 12.5%; viability, T/C (second compound 0.1 µM, first compound 0.00316 µM): 99.1%; viability, T/C (second compound 0.1 µM, first compound 0.01 µM): 112%; viability, T/C (second compound 0.1 µM, first compound 0.0316 µM): 95.3%; viability, T/C (second compound 0.1 µM, first compound 0.1 µM): 106%; viability, T/C (second compound 0.1 µM, first compound 0.316 µM): 29.6%; viability, T/C (second compound 0.1 µM, first compound 1 µM): 13.7%; viability, T/C (second compound 0.316 µM, first compound 0.00316 µM): 88.1%; viability, T/C (second compound 0.316 µM, first compound 0.01 µM): 99.4%; viability, T/C (second compound 0.316 µM, first compound 0.0316 µM): 103%; viability, T/C (second compound 0.316 µM, first compound 0.1 µM): 111%; viability, T/C (second compound 0.316 µM, first compound 0.316 µM): 26.6%; viability, T/C (second compound 0.316 µM, first compound 1 µM): 13.8%; viability, T/C (second compound 1 µM, first compound 0.00316 µM): 102%; viability, T/C (second compound 1 µM, first compound 0.01 µM): 119%; viability, T/C (second compound 1 µM, first compound 0.0316 µM): 104%; viability, T/C (second compound 1 µM, first compound 0.1 µM): 110%; viability, T/C (second compound 1 µM, first compound 0.316 µM): 25.7%; viability, T/C (second compound 1 µM, first compound 1 µM): 12.5%; viability, T/C (second compound 3.16 µM, first compound 0.00316 µM): 119%; viability, T/C (second compound 3.16 µM, first compound 0.01 µM): 95.7%; viability, T/C (second compound 3.16 µM, first compound 0.0316 µM): 102%; viability, T/C (second compound 3.16 µM, first compound 0.1 µM): 131%; viability, T/C (second compound 3.16 µM, first compound 0.316 µM): 22.8%; viability, T/C (second compound 3.16 µM, first compound 1 µM): 16.8%; viability, T/C (second compound 10 µM, first compound 0.00316 µM): 116%; viability, T/C (second compound 10 µM, first compound 0.01 µM): 102%; viability, T/C (second compound 10 µM, first compound 0.0316 µM): 106%; viability, T/C (second compound 10 µM, first compound 0.1 µM): 106%; viability, T/C (second compound 10 µM, first compound 0.316 µM): 24.7%; viability, T/C (second compound 10 µM, first compound 1 µM): 12.8%

Which results are given for `C#Cc1c(F)ccc2cc(O)cc(-c3ncc4c(N5CC6CCC(C5)N6)nc(OCC56CCCN5CC(F)C6)nc4c3F)c12` (stereo not given)?
viability, T/C (compound 0.0316 µM): 85.1% and 95.6% and 68.7%; viability, T/C (compound 0.1 µM): 53.8% and 92.9% and 36.9%; viability, T/C (compound 0.316 µM): 20.1% and 56% and 19.9%; viability, T/C (compound 1 µM): 12% and 28% and 9.47%; viability, T/C (compound 3.16 µM): 7.06% and 18.8% and 5.67%; viability, T/C (compound 10 µM): 5.14% and 11.6% and 4.6%; IC50 (curve of compound): 113 nM and 427 nM and 62.6 nM

Which results are given for `Nc1ccn(C2OC(CO)C(O)C2(F)F)c(=O)n1` (stereo not given)?
viability, T/C (compound 0.0316 µM): 7.08% and 13.1% and 7.05%; viability, T/C (compound 0.1 µM): 6.01% and 12.5% and 5.9%; viability, T/C (compound 0.316 µM): 7.05% and 13.8% and 6.01%; viability, T/C (compound 1 µM): 8.16% and 14.3% and 6.86%; viability, T/C (compound 3.16 µM): 7.56% and 13.9% and 6.67%; viability, T/C (compound 10 µM): 6.46% and 13.6% and 5.49%; IC50 (curve of compound): < 31.6 nM

For `COc1cc(C2c3cc4c(cc3C(OC3OC5COC(C)OC5C(O)C3O)C3COC(=O)C23)OCO4)cc(OC)c1O` (stereo not given), which viability, T/C (compound 0.0316 µM) is on record?
Its viability, T/C is 99.9% and 94.4% and 99.1%.

What about the viability, T/C (compound 0.1 µM) of the same molecule?
The viability, T/C was 111% and 100% and 118%.

What about the viability, T/C (compound 0.316 µM) of the same molecule?
The viability, T/C was 82.8% and 130% and 71.7%.

And the viability, T/C (compound 1 µM)?
Its viability, T/C is 48.1% and 89.2% and 45.2%.

What about the viability, T/C (compound 3.16 µM) of the same molecule?
Its viability, T/C is 30.1% and 59.8% and 27.6%.

And the viability, T/C (compound 10 µM)?
Its viability, T/C is 14.3% and 30.9% and 11.9%.

And the IC50 (curve of compound)?
The IC50 was 989 nM and 4470 nM and 810 nM.
